The values below come from patent US10689367B2, “Triazole pyridyl compounds as agonists of the APJ receptor” (AMGEN INC., priority 2016, dated 2020).

Chain of human APJ receptor (P35414 whole entry): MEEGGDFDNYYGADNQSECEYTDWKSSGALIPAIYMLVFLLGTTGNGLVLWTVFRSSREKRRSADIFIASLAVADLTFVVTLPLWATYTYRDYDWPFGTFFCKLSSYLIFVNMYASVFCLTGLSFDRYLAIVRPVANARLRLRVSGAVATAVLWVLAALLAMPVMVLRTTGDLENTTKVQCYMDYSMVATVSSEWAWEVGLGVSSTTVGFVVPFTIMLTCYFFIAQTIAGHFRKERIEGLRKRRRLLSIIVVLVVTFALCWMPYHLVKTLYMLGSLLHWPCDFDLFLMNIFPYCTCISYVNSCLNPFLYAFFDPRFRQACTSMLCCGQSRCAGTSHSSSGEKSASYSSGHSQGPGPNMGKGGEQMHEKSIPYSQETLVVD

The assay addresses human APJ receptor (Homo sapiens (Human), UniProt P35414). In words: [35S]GTPγS binding assay on membranes from CHO cells stably expressing human APJ receptor. The following applies: membranes of CHO cells stably expressing human APJ receptor, read-out: Activity hAPJ SPA EC50 IP. In kind it is biochemical. Here is the method: The human APJ receptor was cloned by polymerase chain reaction and the gene encoding the receptor was subcloned in pFLAG-CMV™-3 expression vector (Sigma, Saint Louis, Mo. USA) in-house at Amgen. A GTPγS binding assay was performed on membranes prepared from CHO cells stably expressing human APJ receptor. The optimum experimental conditions for the concentrations of GDP, MgCl2, and NaCl in the assay buffer were initially determined. […] Incubation was at RT for 90 min and the microplate was read using a ViewLux™ ultra HTS Microplate Imager (PerkinElmer, Inc.). All the results presented are means of several independent experiments and analyzed by non-linear regression methods using the commercially available program Prism (GraphPad, San Diego, Calif.) providing the EC50 values detailed in Table 27.
On the technique in general: GTPγS is a poorly hydrolysed GTP analogue; its binding reports G protein activation.
In the case of `CCc1noc(C)c1Cn1c(NS(=O)(=O)[C@@H](C)[C@H](OC)c2cnc(C)cn2)nnc1-c1cccc(OC)n1` [Example 195.0, (1R,2S)-N-(4-((3-ethyl-5-methylisoxazol-4-yl)methyl)-5-(6-methoxypyridin-2-yl)-4H-1,2,4-triazol-3-yl)-1-methoxy-1-(5-methylpyrazin-2-yl)propane-2-sulfonamide], the EC50 (in general, the midpoint of the concentration-response curve) worked out at 650 nM.
Next, `COc1cccc(-c2nnc(NS(=O)(=O)[C@@H](C)[C@H](C)c3ncc(C)cn3)n2Cc2ccon2)n1` [Example 291.0, (2S,3R)-N-(4-(isoxazol-3-ylmethyl)-5-(6-methoxypyridin-2-yl)-4H-1,2,4-triazol-3-yl)-3-(5-methylpyrimidin-2-yl)butane-2-sulfonamide]: 35 nM; `COc1cccc(-c2nnc(NS(=O)(=O)[C@@H](C)[C@@H](OC(C)C)c3ncc(C)cn3)n2[C@@H](C)c2ncn(C)n2)n1` (single isomer, unassigned) [Example 234.0, (1S,2S)-N-(5-(6-methoxy-2-pyridinyl)-4-((1R)-1-(1-methyl-1H-1,2,4-triazol-3-yl)ethyl)-4H-1,2,4-triazol-3-yl)-1-(5-methyl-2-pyrimidinyl)-1-(2-propanyloxy)-2-propanesulfonamide or (1S,2S)-N-(5-(6-methoxy-2-pyridinyl)-4-((1S)-1-(1-methyl-1H-1,2,4-triazol-3-yl)ethyl)-4H-1,2,4-triazol-3-yl)-1-(5-methyl-2-pyrimidinyl)-1-(2-propanyloxy)-2-propanesulfonamide]: 84 nM; `COCC(COC)n1c(NS(=O)(=O)[C@@H](C)[C@H](C)c2cnc(C)cn2)nnc1-c1cccnc1` [Example 17.0, (2S,3R)-N-(4-(1,3-dimethoxy-2-propanyl)-5-(3-pyridinyl)-4H-1,2,4-triazol-3-yl)-3-(5-methyl-2-pyrazinyl)-2-butanesulfonamide]: 380 nM.
The result for `COc1cccc(-c2nnc(NS(=O)(=O)[C@@H](C)[C@H](OC)c3ncc(Cl)cn3)n2CC(OC)OC)n1` [Example 77.0] reads 135 nM; that for `COc1cccc(-c2nnc(NS(=O)(=O)[C@@H](C)[C@H](OC)c3ncc(Cl)cn3)n2[C@@H](C)c2ncnn2C)n1` (single isomer, unassigned) [Example 248.0, (1R,2S)-1-(5-chloro-2-pyrimidinyl)-1-methoxy-N-(5-(6-methoxy-2-pyridinyl)-4-((1S)-1-(1-methyl-1H-1,2,4-triazol-5-yl)ethyl)-4H-1,2,4-triazol-3-yl)-2-propanesulfonamide or (1R,2S)-1-(5-chloro-2-pyrimidinyl)-1-methoxy-N-(5-(6-methoxy-2-pyridinyl)-4-((1R)-1-(1-methyl-1H-1,2,4-triazol-5-yl)ethyl)-4H-1,2,4-triazol-3-yl)-2-propanesulfonamide], 270 nM.
The result for `COc1cccc(-c2nnc(NS(=O)(=O)[C@@H](C)[C@@H](OC(C)C)c3ncc(C)cn3)n2[C@H](c2conc2C)C2CC2)n1` (mixture of isomers) [Example 226.0, (1S,2S)-N-(4-((R)-cyclopropyl(3-methyl-1,2-oxazol-4-yl)methyl)-5-(6-methoxy-2-pyridinyl)-4H-1,2,4-triazol-3-yl)-1-(5-methyl-2-pyrimidinyl)-1-(2-propanyloxy)-2-propanesulfonamide and (1S,2S)-N-(4-((S)-cyclopropyl(3-methyl-1,2-oxazol-4-yl)methyl)-5-(6-methoxy-2-pyridinyl)-4H-1,2,4-triazol-3-yl)-1-(5-methyl-2-pyrimidinyl)-1-(2-propanyloxy)-2-propanesulfonamide] reads 0.88 nM; that for `COc1cccc(-c2nnc(NS(=O)(=O)[C@@H](C)[C@@H](OC(C)C)c3ncc(C)cn3)n2[C@@H](C)c2noc(C)n2)n1` (single isomer, unassigned) [Example 259.0, (1S,2S)-N-(5-(6-methoxy-2-pyridinyl)-4-((1R)-1-(5-methyl-1,2,4-oxadiazol-3-yl)ethyl)-4H-1,2,4-triazol-3-yl)-1-(5-methyl-2-pyrimidinyl)-1-(2-propanyloxy)-2-propanesulfonamide or (1S,2S)-N-(5-(6-methoxy-2-pyridinyl)-4-((1S)-1-(5-methyl-1,2,4-oxadiazol-3-yl)ethyl)-4H-1,2,4-triazol-3-yl)-1-(5-methyl-2-pyrimidinyl)-1-(2-propanyloxy)-2-propanesulfonamide], 8.7 nM; that for `COc1cccc(-c2nnc(NS(=O)(=O)[C@@H](C)[C@H](OC)c3ncc(Cl)cn3)n2C2(CF)CC2)n1` [Example 106.0], 0.38 nM.
Regarding `COc1cccc(-c2nnc(NS(=O)(=O)[C@@H](C)[C@H](OC)c3ncc(Cl)cn3)n2CCOC(F)F)n1` [Example 43.0], the EC50 was 3.7 nM.
Turning to `COc1cccc(-c2nnc(NS(=O)(=O)[C@@H](C)[C@H](OC)c3ncc(Cl)cn3)n2C[C@@H]2CCC[C@H](C)O2)n1` (single isomer, unassigned) [Example 305.0], the EC50 was found to be 4 nM.
Next, `COCC(COC)n1c(NS(=O)(=O)[C@@H](C)[C@H](C)c2ncc(C)cn2)nnc1-c1cccc(OC)n1` [Example 98.0]: 6.2 nM.
The result for `COc1cccc(-c2nnc(NS(=O)(=O)[C@@H](C)[C@H](C)c3ncc(Cl)cn3)n2[C@@H](C)c2ccno2)n1` (single isomer, unassigned) [Example 215.0, (2S,3R)-3-(5-chloro-2-pyrimidinyl)-N-(5-(6-methoxy-2-pyridinyl)-4-((1R)-1-(1,2-oxazol-5-yl)ethyl)-4H-1,2,4-triazol-3-yl)-2-butanesulfonamide or (2S,3R)-3-(5-chloro-2-pyrimidinyl)-N-(5-(6-methoxy-2-pyridinyl)-4-((1S)-1-(1,2-oxazol-5-yl)ethyl)-4H-1,2,4-triazol-3-yl)-2-butanesulfonamide] reads 2 nM.
Next, `COc1cccc(-c2nnc(NS(=O)(=O)[C@@H](C)[C@H](C)c3ncc(Cl)cn3)n2[C@H](C)c2csnn2)n1` (single isomer, unassigned) [Example 296.0, (2S,3R)-N-(4-((R)-1-(1,2,3-thiadiazol-4-yl)ethyl)-5-(6-methoxypyridin-2-yl)-4H-1,2,4-triazol-3-yl)-3-(5-chloropyrimidin-2-yl)butane-2-sulfonamide or (2S,3R)-N-(4-((S)-1-(1,2,3-thiadiazol-4-yl)ethyl)-5-(6-methoxypyridin-2-yl)-4H-1,2,4-triazol-3-yl)-3-(5-chloropyrimidin-2-yl)butane-2-sulfonamide]: 1.8 nM.
Regarding `CC[C@@H](c1c(C)noc1C)n1c(NS(=O)(=O)[C@@H](C)[C@H](OC)c2ncc(Cl)cn2)nnc1-c1cccc(OC)n1` (single isomer, unassigned) [Example 219.0, (1R,2S)-1-(5-chloro-2-pyrimidinyl)-N-(4-((1R)-1-(3,5-dimethyl-1,2-oxazol-4-yl)propyl)-5-(6-methoxy-2-pyridinyl)-4H-1,2,4-triazol-3-yl)-1-methoxy-2-propanesulfonamide or (1R,2S)-1-(5-chloro-2-pyrimidinyl)-N-(4-((1S)-1-(3,5-dimethyl-1,2-oxazol-4-yl)propyl)-5-(6-methoxy-2-pyridinyl)-4H-1,2,4-triazol-3-yl)-1-methoxy-2-propanesulfonamide], the EC50 is 1.8 nM.
Next, `COc1cccc(-c2nnc(NS(=O)(=O)[C@@H](C)[C@H](OC)c3ncc(Cl)cn3)n2C2CC2)n1` [Example 69.0]: 0.89 nM.
The result for `COc1cccc(-c2nnc(NS(=O)(=O)[C@@H](C)[C@@H](OC(C)C)c3ncc(C)cn3)n2[C@H](C)[C@@H]2CCCCO2)n1` (single isomer, unassigned) [Example 323.0] reads 0.66 nM; that for `COc1cccc(-c2nnc(NS(=O)(=O)[C@@H](C)[C@H](OC)c3ncc(Cl)cn3)n2C[C@H]2CCC(C)(C)O2)n1` (single isomer, unassigned) [Example 289.0, (1R,2S)-1-(5-chloropyrimidin-2-yl)-N-(4-(((R)-5,5-dimethyltetrahydrofuran-2-yl)methyl)-5-(6-methoxyl)yridin-2-yl)-4H-1,2,4-triazol-3-yl)-1-methoxypropane-2-sulfonamide or (1R,2S)-1-(5-chloropyrimidin-2-yl)-N-(4-(((S)-5,5-dimethyltetrahydrofuran-2-yl)methyl)-5-(6-methoxypyridin-2-yl)-4H-1,2,4-triazol-3-yl)-1-methoxypropane-2-sulfonamide], 82 nM.
For the compound `COc1cccc(-c2nnc(NS(=O)(=O)[C@@H](C)[C@H](OC)c3ncc(Cl)cn3)n2[C@H](C)c2cc(F)cc(F)c2)n1` (single isomer, unassigned) [Example 341.0, (1R,2S)-1-(5-chloropyrimidin-2-yl)-N-(4-((R)-1-(3,5-difluorophenyl)ethyl)-5-(6-methoxypyridin-2-yl)-4H-1,2,4-triazol-3-yl)-1-methoxypropane-2-sulfonamide or (1R,2S)-1-(5-chloropyrimidin-2-yl)-N-(4-((S)-1-(3,5-difluorophenyl)ethyl)-5-(6-methoxypyridin-2-yl)-4H-1,2,4-triazol-3-yl)-1-methoxypropane-2-sulfonamide], the EC50 is 0.13 nM.
As for `COc1cccc(-c2nnc(NS(=O)(=O)[C@@H](C)[C@@H](OC(C)C)c3ncc(C)cn3)n2[C@@H](C)c2ncn(C)n2)n1` (single isomer, unassigned) [Example 233.0, (1S,2S)-N-(5-(6-methoxy-2-pyridinyl)-4-((1S)-1-(1-methyl-1H-1,2,4-triazol-3-yl)ethyl)-4H-1,2,4-triazol-3-yl)-1-(5-methyl-2-pyrimidinyl)-1-(2-propanyloxy)-2-propanesulfonamide or (1S,2S)-N-(5-(6-methoxy-2-pyridinyl)-4-((1R)-1-(1-methyl-1H-1,2,4-triazol-3-yl)ethyl)-4H-1,2,4-triazol-3-yl)-1-(5-methyl-2-pyrimidinyl)-1-(2-propanyloxy)-2-propanesulfonamide], the EC50 amounted to 10 nM.
